Source: article PMC10511752, “Natural product-inspired synthesis of coumarin–chalcone hybrids as potential anti-breast cancer agents” (Frontiers in Pharmacology, 2023)

Key:
[1] = test system: MCF-7 (breast cancer) cells; experiment: MTT cell proliferation assay, MCF-7; assay type: cell-based; settings: Homo sapiens, MCF7, MCF-7 (ER +ve), 48 h, read-out: IC50 values (mean ± SEM) MCF-7
Procedure: (§3) MCF-7, MDA-MB231, and HEK293 cell lines were purchased from ATCC (Manassas, VA, United States). […] They were maintained in Dulbecco’s modified Eagle medium (DMEM) supplemented with 10% fetal bovine serum (FBS). Cells were cultured at 37°C and 5% CO2. Before the experiments, cells were cultured in phenol red-free DMEM supplemented with 10% charcoal stripped fetal bovine serum.

[2] = test system: MDA-MB-231 (breast cancer) cells; experiment: MTT cell proliferation assay, MDA-MB-231; assay type: cell-based; settings: Homo sapiens, MDA-MB-231 (ER -ve), 48 h, read-out: IC50 values (mean ± SEM) MDA-MB-231
Procedure: as §3

[3] = test system: Ishikawa (endometrial cancer) cells; experiment: MTT cell proliferation assay, Ishikawa; assay type: cell-based; settings: Homo sapiens, 48 h, read-out: IC50 values (mean ± SEM) Ishikawa
Procedure: (§1) We conducted an in vitro MTT assay to evaluate the anti-cancer activity of the synthesized neo-tanshinlactone–chalcone hybrid compounds, 26–37, against four human cancer cell lines, namely, MCF-7 (breast cancer), MDA-MB-231 (breast cancer), Ishikawa (endometrial cancer), and HeLa (cervical cancer). The toxicity of the hybrid molecules on the normal human embryonic kidney cell line HEK-293 was also evaluated.
MCF-7, MDA-MB231, and HEK293 cell lines were purchased from ATCC (Manassas, VA, United States). Ishikawa cell lines were obtained from the European Collection of Cell Cultures. They were maintained in Dulbecco’s modified Eagle medium (DMEM) supplemented with 10% fetal bovine serum (FBS). Cells were cultured at 37°C and 5% CO2. Before the experiments, cells were cultured in phenol red-free DMEM supplemented with 10% charcoal stripped fetal bovine serum.
(§2) The synthesized hybrid compounds were tested for their anti-cancer activity using the MTT reduction assay on 2.5 × 10^3 cells per well that were seeded in 100 µL DMEM supplemented with 10% FBS in each well of 96-well microculture plates. After seeding, the cells were incubated for 24 h at 37°C in a CO2 incubator. The required concentrations of the compounds were achieved by diluting the solutions in the culture medium. The media was removed from the wells after 48 h, and 100 µL of MTT (0.5 mg/mL) was added to each well. The plates were then incubated for an additional 3 h. After carefully removing the supernatant from each well, the formazan crystals were dissolved in 100 µL of DMSO. The absorbance was then recorded at a wavelength of 540 nm ([Saquib et al., 2021]; [Gupta et al., 2022]; [Iqbal et al., 2023])

[4] = test system: HeLa (cervical cancer) cells; experiment: MTT cell proliferation assay, HeLa; assay type: cell-based; settings: Homo sapiens, 48 h, read-out: IC50 values (mean ± SEM) HeLa
Procedure: as §1, §2

[5] = test system: normal human embryonic kidney cell line HEK-293; experiment: MTT assay, toxicity on normal cell line HEK-293; assay type: cell-based; settings: HEK293, normal HEK-293 cells (toxicity), 48 h, read-out: IC50 values (mean ± SEM) HEK-293
Procedure: as §3

tubulin = test system: tubulin; parameters: method as in Miller et al., 1997; settings: ref Miller et al., 1997; read-out: IC50, inhibition of polymerization of tubulin; cited from earlier work

| SMILES | IC50 [1] [µM] | IC50 [2] [µM] | IC50 [3] [µM] | IC50 [4] [µM] | melting point [°C] | IC50 [5] [µM] | IC50 (tubulin) [µM] |
| --- | --- | --- | --- | --- | --- | --- | --- |
| COc1cc(OC)cc(C(=O)/C=C/c2cc(=O)oc3c2ccc2ccccc23)c1 [Compound 26, (E)-4-(3-(3,5-Dimethoxyphenyl)-3-oxoprop-1-en-1-yl)-2H-benzo[h]chromen-2-one] | 17.2 ± 1.75 | 16.6 ± 1.25 | > 20 | > 20 | 272 to 273 | > 20 | – |
| COc1ccc(C(=O)/C=C/c2cc(=O)oc3c2ccc2ccccc23)cc1 [Compound 27, (E)-4-(3-(4-Methoxyphenyl)-3-oxoprop-1-enyl)-2H-benzo[h]chromen-2-one] | > 20 | > 20 | 17.4 ± 2.72 | > 20 | – | > 20 | – |
| COc1cc2c(ccc1=O)[C@H]1CC[C@]3(C)[C@@H](O)CC[C@H]3[C@@H]1CC2 [2-Methoxyestradiol–colchicine hybrid A] | – | – | – | – | – | – | 2.1 |
| COc1ccc(C(=O)/C=C/c2cc(=O)oc3c2ccc2c(OC)cccc23)cc1 [Compound 28, (E)-7-Methoxy-4-(3-(4-methoxyphenyl)-3-oxoprop-1-enyl)-2H-benzo[h]chromen-2-one] | 18.6 ± 2.3 | > 20 | > 20 | > 20 | 236 to 237 | > 20 | – |
| COc1cc(OC)cc(C(=O)/C=C/c2cc(=O)oc3c2ccc2c(OC)cccc23)c1 [Compound 30, (E)-4-(3-(3,5-Dimethoxyphenyl)-3-oxoprop-1-en-1-yl)-7-methoxy-2H-benzo[h]chromen-2-one] | 6.8 ± 1.48 | 8.5 ± 1.12 | – | – | – | > 20 | – |
| COc1cccc2c1ccc1c(/C=C/C(=O)c3ccccc3)cc(=O)oc12 [Compound 29, (E)-7-Methoxy-4-(3-oxo-3-phenylprop-1-en-1-yl)-2H-benzo[h]chromen-2-one] | > 20 | > 20 | > 20 | > 20 | 180 to 182 | > 20 | – |
| COc1cc(C(=O)/C=C/c2cc(=O)oc3c2ccc2ccccc23)cc(OC)c1OC [Compound 31, (E)-4-(3-Oxo-3-(3,4,5-trimethoxyphenyl)prop-1-enyl)-2H-benzo[h]chromen-2-one] | 14.4 ± 1.68 | 15.7 ± 1.01 | > 20 | > 20 | – | > 20 | – |
| COc1cc2c(cc1O)CC[C@@H]1[C@@H]2CC[C@]2(C)[C@@H](O)CC[C@@H]12 [2-methoxyestradiol (2-ME), 2-methoxyestradiol] | – | – | – | – | – | – | 14.2 |

Further lines, with some results ahead:

| IC50 [1] [µM] | IC50 [2] [µM] | IC50 [3] [µM] | IC50 [4] [µM] | melting point [°C] | SMILES | IC50 [5] [µM] | IC50 (tubulin) [µM] |
| --- | --- | --- | --- | --- | --- | --- | --- |
| > 20 | > 20 | 18.6 ± 2.56 | 17.2 ± 2.88 | – | COc1cccc2c1ccc1c(/C=C/C(=O)c3ccc(Cl)c(Cl)c3)cc(=O)oc12 [Compound 37] | > 20 | – |
| > 20 | > 20 | > 20 | > 20 | – | O=C(/C=C/c1cc(=O)oc2c1ccc1ccccc12)c1ccc(Cl)cc1 [Compound 34] | > 20 | – |
| 16.3 ± 2.3 | > 20 | > 20 | > 20 | > 260 | COc1cc(C(=O)/C=C/c2cc(=O)oc3c2ccc2c(OC)cccc23)cc(OC)c1OC [Compound 33, (E)-7-Methoxy-4-(3-oxo-3-(3,4,5-trimethoxyphenyl)prop-1-enyl)-2H-benzo[h] chromen-2-one] | > 20 | – |
| > 20 | > 20 | > 20 | > 20 | 245 to 246 | O=C(/C=C/c1cc(=O)oc2c1ccc1ccccc12)c1ccccc1 [Compound 32, (E)-4-(3-Oxo-3-phenylprop-1-enyl)-2H-benzo[h]chromen-2-one] | > 20 | – |
| > 20 | > 20 | > 20 | > 20 | – | COc1cccc2c1ccc1c(/C=C/C(=O)c3ccc(Cl)cc3)cc(=O)oc12 [Compound 35] | > 20 | – |
| > 20 | > 20 | 19.2 ± 3.12 | 16.8 ± 3.14 | – | O=C(/C=C/c1cc(=O)oc2c1ccc1ccccc12)c1ccc(Cl)c(Cl)c1 [Compound 36] | > 20 | – |
